From patent publication US7172907B2, “Cyanine dye labelling reagents with meso-substitution” (GE Healthcare Bio-Sciences Corp., priority 2003, dated 2007)

How the values were obtained:
[1] = background values for known Cy dyes, X = Y = C(CH3)2; cited from earlier work
[2] = Hydrolytic stability in de-ionized water, fading of the dyes; format: physicochemical
[3] = Photostability: ethanolic solution left in the room light, fading of the dyes; format: physicochemical
[4] = Absorption and emission spectra of meso-cyano Cy5 in MeOH; format: physicochemical
Experimental: (§1) 2-{N-Acetyl-N-phenyl}aminoethenyl-1,3,3-trimethylindoleriine and 2-{N-acetyl-N-phenyl}aminoethenyl-1-{6-carboxypentyl}-3,3-trimethylindolenine (20 mmoles of each) and 10 equivalents of cyanoacetic acid in pyridine (100 ml) were heated under reflux under Argon for 4 hours. At the end of the reaction, the pyridine was evaporated and the product purified by repeated HPLC purification followed by silica gel column chromatography with increasing amounts of MeOH in ethyl acetate as the eluant to give a pure product, 2-{5-[1-(5-carboxypentyl)-3,3-dimethyl-1,3-dihydro-2H-indol-2-ylidene]-3-cyano-1,3-pentadienyl}-1,3,3-trimethyl-3H-indolinium (meso-cyano Cy5). Absorption maximum (MeOH): 610 nm: Emission maximum (MeOH): 628 nm; Quantum yield: 0.65 that of Cy5.

[5] = Fluorescence quantum yield relative to Cy5; format: physicochemical; conditions: expressed as fraction of that of Cy5
Experimental: as §1

| Hydrolytic stability: half-life (t1/2) for fading of the dyes ([2]; pH=6.85) | Photostability: half-life (t1/2) for fading of the dyes [3] | Absorption maximum [4] | Emission maximum [4] | Quantum yield [5] | half-life ([2]; pH=6.85, read-out: Hydrolytic stability: half-life (t1/2) for fading of the dyes) | half-life ([3]; read-out: Photostability: half-life (t1/2) for fading of the dyes) | Molecule | Abs max [1] | Em max [1] |
| --- | --- | --- | --- | --- | --- | --- | --- | --- | --- |
| – | – | – | – | – | – | – | CCN1C(=CC=CC2=[N+](CCCCCC(=O)O)c3ccc(S(=O)(=O)O)cc3C2(C)C)C(C)(C)c2cc(S(=O)(=O)[O-])ccc21 [Cy3] | 550 nm | 570 nm |
| 56 h | 22 h | – | – | – | – | – | CCN1/C(=C/C=C/C=C/C2=[N+](CCCCCC(=O)O)c3ccc(S(=O)(=O)O)cc3C2(C)C)C(C)(C)c2cc(S(=O)(=O)[O-])ccc21 [Cy5] | 649 nm | 670 nm |
| – | – | – | – | – | – | – | Cy5.5 | 675 nm | 694 nm |
| – | – | 610 nm | 628 nm | 0.65 | > 6.25 days | > 3.12 days | CN1/C(=C/C=C(C#N)/C=C/C2=[N+](CCCCCC(=O)O)c3ccccc3C2(C)C)C(C)(C)c2ccccc21 [meso-cyano Cy5, 2-{5-[1-(5-Carboxypentyl)-3,3-dimethyl-1,3-dihydro-2H-indol-2-ylidene]-3-cyano-1,3-pentadienyl}-1,3,3-trimethyl-3H-indolinium] | – | – |
